The source of these data is PubChem BioAssay AID330 (DTP/NCI, 2004).

This test deals with P388 leukemia ip, CD2F1 mice, survival T/C. In words: NCI In Vivo Anticancer Drug Screen. Data for tumor model P388 Leukemia (intraperitoneal) in CD2F1 (CDF1) mice. As to conditions: endpoint: median survival time, higher = longer survival. Summed up: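 Mice carrying the transplanted tumor received test compound or vehicle. Survival was recorded in each group, and the value is the treated-group measurement divided by that of the vehicle-treated control group.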

Molecules are shown by their SMILES. “And” between values parts separate entries of the source, which are not always exact repeats. Identical values can stand only once. Inconclusive results and toxic doses are left out.

For `Cc1noc(N)c1-n1c(C)ccc1C`, the T/C (dose: 100.0 mg/kg/injection, schedule: Q04DX003 (ip), vehicle: saline with Tween-80) is 95 % of control; the T/C (dose: 200.0 mg/kg/injection, schedule: Q04DX003 (ip), vehicle: saline with Tween-80) was 100 % of control; the T/C (dose: 400.0 mg/kg/injection, schedule: Q04DX003 (ip), vehicle: saline with Tween-80) was 100 % of control.

`C/C=C1\CN(C)C2Cc3c([nH]c4ccccc34)C(c3c(OC)ccc4c5c([nH]c34)C3(C(=O)OC)CC4CC(CC)C3N(CC5)C4)CC1C2C(=O)OC` (configuration not stated): the T/C (dose: 12.5 mg/kg/injection, schedule: Q01DX009 (ip), vehicle: saline with Tween-80) was 115 % of control; the T/C (dose: 25.0 mg/kg/injection, schedule: Q01DX009 (ip), vehicle: saline with Tween-80) is 106 % of control; the T/C (dose: 50.0 mg/kg/injection, schedule: Q01DX009 (ip), vehicle: saline with Tween-80) is 106 % of control; the T/C (dose: 100.0 mg/kg/injection, schedule: Q01DX009 (ip), vehicle: saline with Tween-80) was 91 % of control.

Regarding `Nc1[nH]c(=O)[nH]c(=O)c1N=O`, the T/C reads like this: (dose: 60.0 mg/kg/injection, schedule: Q01DX005 (ip), vehicle: Klucel (hydroxypropylcellulose) (HPC)) 101 % of control and 96 % of control; (dose: 120.0 mg/kg/injection, schedule: Q01DX005 (ip), vehicle: Klucel (hydroxypropylcellulose) (HPC)) 101 % of control and 108 % of control; (dose: 240.0 mg/kg/injection, schedule: Q01DX005 (ip), vehicle: Klucel (hydroxypropylcellulose) (HPC)) 104 % of control and 98 % of control.

For the compound `COc1cc(C(=O)O)cc(C(=O)O)c1`, the T/C (dose: 6.25 mg/kg/injection, schedule: Q01DX009 (ip), vehicle: saline) was 99 % of control; the T/C (dose: 12.5 mg/kg/injection, schedule: Q01DX009 (ip), vehicle: saline) is 107 % of control; the T/C (dose: 25.0 mg/kg/injection, schedule: Q01DX009 (ip), vehicle: saline) was 100 % of control.

Consider `Nc1ccc2nc[nH]c2c1`, for which the T/C is 101 % of control (dose: 25.0 mg/kg/injection, schedule: Q04DX002 (ip), vehicle: Klucel (hydroxypropylcellulose) (HPC)); 104 % of control (dose: 50.0 mg/kg/injection, schedule: Q04DX002 (ip), vehicle: Klucel (hydroxypropylcellulose) (HPC)); 101 % of control and 90 % of control (dose: 100.0 mg/kg/injection, schedule: Q04DX002 (ip), vehicle: Klucel (hydroxypropylcellulose) (HPC)).

Take `c1ccc2c(NCCCCCCNc3c4ccccc4nc4ccccc34)c3ccccc3nc2c1`: the T/C was 124 % of control (dose: 0.62 mg/kg/injection, schedule: Q## X009 (ip), vehicle: lactic acid); 119 % of control (dose: 1.25 mg/kg/injection, schedule: Q01DX009 (ip), vehicle: Klucel (hydroxypropylcellulose) (HPC)); 121 % of control (dose: 1.25 mg/kg/injection, schedule: Q01DX009 (ip), vehicle: water); 99 % of control (dose: 1.25 mg/kg/injection, schedule: Q01DX009 (oral), vehicle: Klucel (hydroxypropylcellulose) (HPC)); 155 % of control (dose: 2.16 mg/kg/injection, schedule: Q01DX009 (ip), vehicle: Klucel (hydroxypropylcellulose) (HPC)); 156 % of control (dose: 2.16 mg/kg/injection, schedule: Q01DX009 (ip), vehicle: lactic acid). Further, the T/C was 106 % of control (dose: 2.5 mg/kg/injection, schedule: Q01DX009 (oral), vehicle: Klucel (hydroxypropylcellulose) (HPC)); 152 % of control (dose: 2.5 mg/kg/injection, schedule: Q## X009 (ip), vehicle: lactic acid); 150 % of control (dose: 2.59 mg/kg/injection, schedule: Q01DX009 (ip), vehicle: lactic acid); 163 % of control (dose: 3.6 mg/kg/injection, schedule: Q01DX009 (ip), vehicle: Klucel (hydroxypropylcellulose) (HPC)); 154 % of control (dose: 3.6 mg/kg/injection, schedule: Q01DX009 (ip), vehicle: lactic acid); 150 % of control (dose: 4.32 mg/kg/injection, schedule: Q01DX009 (ip), vehicle: lactic acid). The T/C reads like this: (dose: 5.0 mg/kg/injection, schedule: Q01DX009 (oral), vehicle: Klucel (hydroxypropylcellulose) (HPC)) 93 % of control; (dose: 5.4 mg/kg/injection, schedule: Q01DX009 (ip), vehicle: other) 156 % of control; (dose: 6.0 mg/kg/injection, schedule: Q01DX009 (ip), vehicle: Klucel (hydroxypropylcellulose) (HPC)) 180 % of control; (dose: 7.2 mg/kg/injection, schedule: Q01DX009 (ip), vehicle: Klucel (hydroxypropylcellulose) (HPC)) 157 % of control; (dose: 7.2 mg/kg/injection, schedule: Q01DX009 (ip), vehicle: lactic acid) 150 % of control; (dose: 7.2 mg/kg/injection, schedule: Q04DX003 (ip), vehicle: other) 118 % of control. The T/C is, setting by setting: (dose: 7.78 mg/kg/injection, schedule: Q01DX003 (ip), vehicle: water) 101 % of control; (dose: 7.78 mg/kg/injection, schedule: Q01DX009 (oral), vehicle: Klucel (hydroxypropylcellulose) (HPC)) 101 % of control; (dose: 7.78 mg/kg/injection, schedule: Q01DX009 (oral), vehicle: lactic acid) 111 % of control; (dose: 9.0 mg/kg/injection, schedule: Q01DX009 (ip), vehicle: other) 165 % of control; (dose: 10.0 mg/kg/injection, schedule: Q01DX009 (ip), vehicle: Klucel (hydroxypropylcellulose) (HPC)) 173 % of control; (dose: 10.0 mg/kg/injection, schedule: Q01DX009 (ip), vehicle: other) 150 % of control. The T/C runs as follows: (dose: 10.0 mg/kg/injection, schedule: Q01DX009 (ip), vehicle: water) 150 % of control; (dose: 10.0 mg/kg/injection, schedule: Q01DX009 (oral), vehicle: Klucel (hydroxypropylcellulose) (HPC)) 97 % of control; (dose: 12.0 mg/kg/injection, schedule: Q01DX009 (ip), vehicle: Klucel (hydroxypropylcellulose) (HPC)) 154 % of control; (dose: 12.0 mg/kg/injection, schedule: Q04DX003 (ip), vehicle: other) 95 % of control; (dose: 13.0 mg/kg/injection, schedule: Q01DX003 (ip), vehicle: water) 101 % of control; (dose: 13.0 mg/kg/injection, schedule: Q01DX009 (oral), vehicle: Klucel (hydroxypropylcellulose) (HPC)) 100 % of control. The T/C reads like this: (dose: 13.0 mg/kg/injection, schedule: Q01DX009 (oral), vehicle: lactic acid) 104 % of control; (dose: 15.0 mg/kg/injection, schedule: Q01DX009 (ip), vehicle: other) 168 % of control; (dose: 20.0 mg/kg/injection, schedule: Q01DX009 (oral), vehicle: Klucel (hydroxypropylcellulose) (HPC)) 108 % of control; (dose: 21.6 mg/kg/injection, schedule: Q01DX009 (oral), vehicle: Klucel (hydroxypropylcellulose) (HPC)) 100 % of control; (dose: 21.6 mg/kg/injection, schedule: Q01DX009 (oral), vehicle: lactic acid) 96 % of control; (dose: 36.0 mg/kg/injection, schedule: Q01DX009 (oral), vehicle: Klucel (hydroxypropylcellulose) (HPC)) 104 % of control. The T/C (dose: 36.0 mg/kg/injection, schedule: Q01DX009 (oral), vehicle: lactic acid) was 96 % of control; the T/C (dose: 40.0 mg/kg/injection, schedule: Q01DX009 (oral), vehicle: Klucel (hydroxypropylcellulose) (HPC)) was 93 % of control; the T/C (dose: 60.0 mg/kg/injection, schedule: Q01DX009 (oral), vehicle: Klucel (hydroxypropylcellulose) (HPC)) was 96 % of control; the T/C (dose: 60.0 mg/kg/injection, schedule: Q01DX009 (oral), vehicle: lactic acid) was 93 % of control; the T/C (dose: 80.0 mg/kg/injection, schedule: Q01DX009 (oral), vehicle: Klucel (hydroxypropylcellulose) (HPC)) was 97 % of control; the T/C (dose: 100.0 mg/kg/injection, schedule: Q01DX009 (oral), vehicle: Klucel (hydroxypropylcellulose) (HPC)) is 95 % of control. For the same compound, the T/C runs as follows: (dose: 100.0 mg/kg/injection, schedule: Q01DX009 (oral), vehicle: lactic acid) 99 % of control; (dose: 167.0 mg/kg/injection, schedule: Q01DX009 (oral), vehicle: Klucel (hydroxypropylcellulose) (HPC)) 108 % of control; (dose: 167.0 mg/kg/injection, schedule: Q01DX009 (oral), vehicle: lactic acid) 103 % of control.

In the case of `CCOC(=O)c1ccc2c(c1)Nc1cc3ccccc3cc1N2`, the T/C is, setting by setting: (dose: 25.0 mg/kg/injection, schedule: Q01DX009 (ip), vehicle: saline + alcohol) 104 % of control; (dose: 50.0 mg/kg/injection, schedule: Q01DX009 (ip), vehicle: saline + alcohol) 88 % of control; (dose: 100.0 mg/kg/injection, schedule: Q01DX009 (ip), vehicle: saline + alcohol) 101 % of control.

With `O=C1NCC2CCCC1C2` (configuration not stated), the T/C is 101 % of control (dose: 50.0 mg/kg/injection, schedule: Q01DX005 (ip), vehicle: saline with Tween-80); 100 % of control (dose: 100.0 mg/kg/injection, schedule: Q01DX005 (ip), vehicle: saline with Tween-80); 97 % of control (dose: 200.0 mg/kg/injection, schedule: Q01DX005 (ip), vehicle: saline with Tween-80).
